Converted amounts (≈) assume the structure as drawn.
Experiments:
[1] = Intestinal S9 Assay (dog GI S9); format: in vitro ADME; settings: 1.0 mg/mL S9 protein; for Dog GI S9 [Intermediate A] / Dog GI S9 [Intermediate A] %: 2 μM, TRIS pH 7.4; for half-life at 2 μM: dog, TRIS pH 7.4, read-out: Dog GI S9 T½
How it was run: (§1)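 Pooled dog or human intestinal S9 at 1.0 mg/mL protein in TRIS buffer pH 7.4 with ZnCl2 and MgCl2; compound at 2 μM, sampled 0–120 min and quenched. Remaining parent by LC-MS peak area ratio; half-life from first-order exponential decline fit.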

HIV-1 IIIB strain = test: MT-4 HIV Wild Type Virus Infection Assay (IIIB Virus); format: cell-based; settings: Human immunodeficiency virus 1, IIIB, MT4, 120 h, MT-4 cells acutely infected with HIV-1 IIIB, 5 day incubation, Cell-titer glo
How it was run: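 MT-4 cells at 2×10^6 cells/ml in RPMI/10% FBS were acutely infected with HIV-1 IIIB for 1 h at 37° C, diluted 25× and added to serially diluted compounds. After 5 days at 37° C, viability read by CellTiter-Glo luminescence; EC50 from dose-response curves.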

[2] = Intestinal S9 Assay (human GI S9); format: in vitro ADME; settings: 1.0 mg/mL S9 protein; for Human GI S9 [Intermediate A] / Human GI S9 [Intermediate A] %: 2 μM, TRIS pH 7.4; for half-life at 2 μM: human, TRIS pH 7.4, read-out: Human GI S9 T½
How it was run: as §1

Solubility in FaSSIF = settings: 23 °C, pH 6.5, fassif, thermodynamic from solid
How it was run: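 Concentration measured by HPLC-UV after solid compound was dosed at 5 mg/mL into pH 6.5 fasted-state simulated intestinal fluid containing taurocholate and lecithin (4:1 molar) and vortexed.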

PBS Stability Assay = format: physicochemical; settings: buffer, pH 7.4, 2 μM, phosphate buffered saline pH 7.4; read-out: PBS T½
How it was run: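 Half-life derives from first-order exponential decline of % compound remaining, quantified by LC-MS analyte/internal-standard peak-area ratio. Compound (2 μM final) sat in pH 7.4 phosphate-buffered saline, with aliquots quenched into acidified acetonitrile containing labetalol from 0 to 120 min.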

[3] = biological target: bovine intestinal alkaline phosphatase (Bos taurus (Bovine), UniProt P19111); test: BiALP: conversion by bovine intestinal alkaline phosphatase; format: in vitro ADME; settings: 2 μM substrate, 100 ng/mL iALP, Tris pH 7.8, 37° C., 60 minutes; for [Intermediate A] or [Amprenavir]: parent formed
How it was run: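 LC-MS (positive mode) quantified analyte/internal-standard peak area ratios, referenced to 2 μM parent product. This followed a 60 min, 37° C reaction of 2 μM substrate in Tris buffer pH 7.8 (1 mM MgCl2, 1 mM ZnCl2) containing 100 ng/mL iALP or buffer alone, run in triplicate.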

bovine intestinal alkaline phosphatase, sequence (P19111 20-506): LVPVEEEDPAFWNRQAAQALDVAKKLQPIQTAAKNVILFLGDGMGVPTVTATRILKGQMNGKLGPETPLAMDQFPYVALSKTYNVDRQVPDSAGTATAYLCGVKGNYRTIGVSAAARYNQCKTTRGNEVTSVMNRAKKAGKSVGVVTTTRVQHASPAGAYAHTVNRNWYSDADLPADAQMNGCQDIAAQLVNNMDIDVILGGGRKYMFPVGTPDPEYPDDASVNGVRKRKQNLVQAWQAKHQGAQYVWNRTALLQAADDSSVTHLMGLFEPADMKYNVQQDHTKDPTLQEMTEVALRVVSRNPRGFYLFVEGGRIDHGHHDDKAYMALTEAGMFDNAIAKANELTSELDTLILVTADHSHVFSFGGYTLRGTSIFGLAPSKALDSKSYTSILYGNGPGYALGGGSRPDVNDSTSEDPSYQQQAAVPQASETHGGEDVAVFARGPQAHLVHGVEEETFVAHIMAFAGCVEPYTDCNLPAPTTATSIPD

SMILES	Dog GI S9 [Intermediate A] [1]	Dog GI S9 [Intermediate A] % [1]	half-life at 2 μM [1]	EC50 (HIV-1 IIIB strain)	Human GI S9 [Intermediate A] [2]	Human GI S9 [Intermediate A] % [2]	half-life at 2 μM [2]	solubility at 2 h (Solubility in FaSSIF)	half-life at 2 μM (PBS Stability Assay)	[Compound] [3]	biALP Intermediate A or [Amprenavir] (% of total) [3]	[Intermediate A] or [Amprenavir] [3]
COC(=O)N[C@H](C(=O)N[C@@H](Cc1ccc(C#Cc2cnc(N3CC4CCC(C3)N4C3COC3)nc2)cc1)[C@H](CN(Cc1c(F)cc(-c2ccn(C(F)F)n2)cc1F)NC(=O)[C@@H](NC(=O)OC)C(C)(C)C(F)(F)F)OC(=O)CC(C)(C)c1c(CC(=O)NCC(=O)O)cccc1OP(=O)(O)O)C(C)(C)C(F)(F)F [Example 7]	1224.2 nM	91%	0.457 h	23.2 nM	404.7 nM	31.3%	2.27 h	5490 µg/mL (≈ 3590 µM)	8.72 h	1590.8 nM	9.4 % of total	164.7 nM
COC(=O)N[C@H](C(=O)N[C@@H](Cc1ccc(C#Cc2cnc(N3CC4CCC(C3)N4C3COC3)nc2)cc1)[C@H](CN(Cc1c(F)cc(-c2ccn(C(F)F)n2)cc1F)NC(=O)[C@@H](NC(=O)OC)C(C)(C)C(F)(F)F)OC(=O)CC(C)(C)c1c(CC(=O)Nc2cccc(C(=O)O)c2)cc(C)cc1OP(=O)(O)O)C(C)(C)C(F)(F)F [Example 14]	210.8 nM	13.8%	6.69 h	178 nM	58.5 nM	3.9%	10.1 h	< 1000 µg/mL	5.58 h	2276.6 nM	2.2 % of total	50.3 nM
COC(=O)N[C@H](C(=O)N[C@@H](Cc1ccc(C#Cc2cnc(N3CC4CCC(C3)N4C3COC3)nc2)cc1)[C@H](CN(Cc1c(F)cc(-c2ccn(C(F)F)n2)cc1F)NC(=O)[C@@H](NC(=O)OC)C(C)(C)C(F)(F)F)OC(=O)CC(C)(C)c1c(CC(=O)NC(CCP(=O)(O)O)C(=O)O)cc(C)cc1OP(=O)(O)O)C(C)(C)C(F)(F)F (stereo partly drawn) [Example 35]			0.235 h	65.7 nM			3.21 h	3560 µg/mL (≈ 2160 µM)	3.27 h	2145.2 nM		
COC(=O)N[C@H](C(=O)N[C@@H](Cc1ccc(C#Cc2cnc(N3CC4CCC(C3)N4C3COC3)nc2)cc1)[C@H](CN(Cc1c(F)cc(-c2ccn(C(F)F)n2)cc1F)NC(=O)[C@@H](NC(=O)OC)C(C)(C)C(F)(F)F)OC(=O)CC(C)(C)c1c(CC(=O)N[C@@]2(C(=O)O)CCOC2)cc(C)cc1OP(=O)(O)O)C(C)(C)C(F)(F)F [Example 29]			0.822 h	213 nM			3.31 h	4970 µg/mL (≈ 3110 µM)	8.62 h	1878.7 nM		
COC(=O)N[C@H](C(=O)N[C@@H](Cc1ccc(C#Cc2cnc(N3CC4CCC(C3)N4C3COC3)nc2)cc1)[C@H](CN(Cc1c(F)cc(-c2ccn(C(F)F)n2)cc1F)NC(=O)[C@@H](NC(=O)OC)C(C)(C)C(F)(F)F)OC(=O)CC(C)(C)c1c(CC(=O)NCP(=O)(O)O)cc(C)cc1OP(=O)(O)O)C(C)(C)C(F)(F)F [Example 104]			0.15 h	17.6 nM			2.1 h	2730 µg/mL (≈ 1730 µM)	4.75 h	1622.8 nM		
COC(=O)N[C@H](C(=O)N[C@@H](Cc1ccc(C#Cc2cnc(N3CC4CCC(C3)N4C3COC3)nc2)cc1)[C@H](CN(Cc1c(F)cc(-c2ccn(C(F)F)n2)cc1F)NC(=O)[C@@H](NC(=O)OC)C(C)(C)C(F)(F)F)OC(=O)CC(C)(C)c1c(CC(=O)Nc2ccc(OC)c(S(=O)(=O)O)c2)cc(C)cc1OP(=O)(O)O)C(C)(C)C(F)(F)F [Example 107]			2.21 h	317 nM			4.11 h	3440 µg/mL (≈ 2060 µM)	6.36 h	1468.1 nM		
COC(=O)N[C@H](C(=O)N[C@@H](Cc1ccc(C#Cc2cnc(N3CC4CCC(C3)N4C3COC3)nc2)cc1)[C@H](CN(Cc1c(F)cc(-c2ccn(C(F)F)n2)cc1F)NC(=O)[C@@H](NC(=O)OC)C(C)(C)C(F)(F)F)OC(=O)CC(C)(C)c1c(CC(=O)NCc2ccc(C(=O)O)cc2)cc(C)cc1OP(=O)(O)O)C(C)(C)C(F)(F)F [Example 49]			2.59 h	224 nM			5.5 h	1220 µg/mL (≈ 754 µM)	5.66 h	2175 nM		
COC(=O)N[C@H](C(=O)N[C@@H](Cc1ccc(C#Cc2cnc(N3CC4CCC(C3)N4C3COC3)nc2)cc1)[C@H](CN(Cc1c(F)cc(-c2ccn(C(F)F)n2)cc1F)NC(=O)[C@@H](NC(=O)OC)C(C)(C)C(F)(F)F)OC(=O)CC(C)(C)c1c(CC(=O)NCc2ccc(C#N)cc2)cc(C)cc1OP(=O)(O)O)C(C)(C)C(F)(F)F [Example 51, (5S,10S,11S,14S)-8-(4-(1-(difluoromethyl)-1H-pyrazol-3-yl)-2,6-difluorobenzyl)-11-(4-((2-(8-(oxetan-3-yl)-3,8-diazabicyclo[3.2.1]octan-3-yl)pyrimidin-5-yl)ethynyl)benzyl)-3,6,13,16-tetraoxo-5,14-bis(1,1,1-trifluoro-2-methylpropan-2-yl)-2,17-dioxa-4,7,8,12,15-pentaazaoctadecan-10-yl 3-(2-(2-((4-cyanobenzyl)amino)-2-oxoethyl)-4-methyl-6-(phosphonooxy)phenyl)-3-methylbutanoate]			8.29 h	636 nM			7.98 h	< 1000 µg/mL	6.71 h	2331.5 nM		
COC(=O)N[C@H](C(=O)N[C@@H](Cc1ccc(C#Cc2cnc(N3CC4CCC(C3)N4C3COC3)nc2)cc1)[C@H](CN(Cc1c(F)cc(-c2ccn(C(F)F)n2)cc1F)NC(=O)[C@@H](NC(=O)OC)C(C)(C)C(F)(F)F)OC(=O)CC(C)(C)c1c(CC(=O)N[C@@H](CCS(=O)(=O)O)C(=O)O)cc(C)cc1OP(=O)(O)O)C(C)(C)C(F)(F)F [Example 33]			1.51 h	65.7 nM			3.72 h	4240 µg/mL (≈ 2570 µM)	5.71 h	1487.1 nM		
COC(=O)N[C@H](C(=O)N[C@@H](Cc1ccc(C#Cc2cnc(N3CC4CCC(C3)N4C3COC3)nc2)cc1)[C@H](CN(Cc1c(F)cc(-c2ccn(C(F)F)n2)cc1F)NC(=O)[C@@H](NC(=O)OC)C(C)(C)C(F)(F)F)OC(=O)CC(C)(C)c1c(CC(=O)N2C[C@@H](C(=O)O)C[C@H]2C(=O)O)cc(C)cc1OP(=O)(O)O)C(C)(C)C(F)(F)F [Example 10]	228.1 nM	18.4%	4.24 h	418 nM	86.8 nM	7.3%	9.22 h	3120 µg/mL (≈ 1920 µM)	9.92 h	1868.8 nM	4.9 % of total	95.5 nM
COC(=O)N[C@H](C(=O)N[C@@H](Cc1ccc(C#Cc2cnc(N3CC4CCC(C3)N4C3COC3)nc2)cc1)[C@H](CN(Cc1c(F)cc(-c2ccn(C(F)F)n2)cc1F)NC(=O)[C@@H](NC(=O)OC)C(C)(C)C(F)(F)F)OC(=O)CC(C)(C)c1c(CC(=O)N[C@@H](CCC(=O)O)C(=O)O)cc(C)cc1OP(=O)(O)O)C(C)(C)C(F)(F)F [Example 66]	965.9 nM	68.6%	0.912 h	164 nM	367.6 nM	26%	3.19 h	3890 µg/mL (≈ 2410 µM)	4.86 h	1908 nM	9.4 % of total	197.1 nM
